Experimental data from the supplement of paper PMC10307832.

Legend:
Assay in all cases: relative viability (nuclei count vs DMSO), 5 days (fraction); higher = more cells survive
[1] = tested on: H3255
Outline: (§1)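 Relative viability is defined as nuclei in treated wells over nuclei in vehicle wells. Duplicate plates were run and medians reported. Lung cancer cell lines in 1536-well plates were dosed by pin tool one day after seeding, with one drug or with a fixed anchor-drug dose plus five library-drug doses (not always all listed) in √10 steps, and nuclei were counted after 5 days.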

[2] = tested on: NCI-H727
Outline: as §1

[3] = tested on: LC-2-ad
Outline: as §1

[4] = tested on: PC-3 [JPC-3]
Outline: as §1

[5] = tested on: NCI-H661
Outline: as §1

[6] = tested on: NCI-H460
Outline: as §1

[7] = tested on: NCI-H1650
Outline: as §1

[8] = tested on: NCI-H2023
Outline: as §1

[9] = tested on: NCI-H596
Outline: as §1

[10] = tested on: LCLC-97TM1
Outline: as §1

[11] = tested on: ABC-1
Outline: as §1

[12] = tested on: CAL-12T
Outline: as §1

[13] = tested on: BEN
Outline: as §1

[14] = tested on: NCI-H441
Outline: as §1

[15] = tested on: NCI-H2087
Outline: as §1

[16] = tested on: 201T
Outline: as §1

[17] = tested on: NCI-H520
Outline: as §1

[18] = tested on: NCI-H1651
Outline: as §1

[19] = tested on: NCI-H1915
Outline: as §1

[20] = tested on: NCI-H1944
Outline: as §1

[21] = tested on: NCI-H650
Outline: as §1

[22] = tested on: A-427
Outline: as §1

SMILES: CCN(CC)CCCCNc1ncc2cc(-c3cc(OC)cc(OC)c3)c(NC(=O)NC(C)(C)C)nc2n1 + CS(=O)(=O)N1CCN(Cc2cc3nc(-c4cccc5[nH]ncc45)nc(N4CCOCC4)c3s2)CC1 [Pictilisib] (partner 1 µM)
- relative viability ([1]; first compound 0.01 µM): 0.421
- relative viability ([1]; first compound 0.03162 µM): 0.485
- relative viability ([1]; first compound 0.1 µM): 0.569
- relative viability ([1]; first compound 0.3162 µM): 0.514
- relative viability ([1]; first compound 1 µM): 0.501
- relative viability ([2]; first compound 0.01 µM): 0.413
- relative viability ([2]; first compound 0.03162 µM): 0.417
- relative viability ([2]; first compound 0.1 µM): 0.362
- relative viability ([2]; first compound 0.3162 µM): 0.627
- relative viability ([2]; first compound 1 µM): 0.41
- relative viability ([3]; first compound 0.01 µM): 0.481
- relative viability ([3]; first compound 0.03162 µM): 0.449
- relative viability ([3]; first compound 0.1 µM): 0.547
- relative viability ([3]; first compound 0.3162 µM): 0.544
- relative viability ([3]; first compound 1 µM): 0.392
- relative viability ([4]; first compound 0.01 µM): 0.739
- relative viability ([4]; first compound 0.03162 µM): 0.843
- relative viability ([4]; first compound 0.1 µM): 0.786
- relative viability ([4]; first compound 0.3162 µM): 0.815
- relative viability ([4]; first compound 1 µM): 0.602
- relative viability ([5]; first compound 0.01 µM): 0.403
- relative viability ([5]; first compound 0.03162 µM): 0.313
- relative viability ([5]; first compound 0.1 µM): 0.434
- relative viability ([5]; first compound 0.3162 µM): 0.445
- relative viability ([5]; first compound 1 µM): 0.344
- relative viability ([6]; first compound 0.01 µM): 0.311
- relative viability ([6]; first compound 0.03162 µM): 0.258
- relative viability ([6]; first compound 0.1 µM): 0.417
- relative viability ([6]; first compound 0.3162 µM): 0.382
- relative viability ([6]; first compound 1 µM): 0.395
- relative viability ([7]; first compound 0.01 µM): 0.542
- relative viability ([7]; first compound 0.03162 µM): 0.464
- relative viability ([7]; first compound 0.1 µM): 0.423
- relative viability ([7]; first compound 0.3162 µM): 0.477
- relative viability ([7]; first compound 1 µM): 0.22
- relative viability ([8]; first compound 0.01 µM): 0.22
- relative viability ([8]; first compound 0.03162 µM): 0.222
- relative viability ([8]; first compound 0.1 µM): 0.221
- relative viability ([8]; first compound 0.3162 µM): 0.232
- relative viability ([8]; first compound 1 µM): 0.193
- relative viability ([9]; first compound 0.01 µM): 0.422
- relative viability ([9]; first compound 0.03162 µM): 0.418
- relative viability ([9]; first compound 0.1 µM): 0.369
- relative viability ([9]; first compound 0.3162 µM): 0.378
- relative viability ([9]; first compound 1 µM): 0.35
- relative viability ([10]; first compound 0.03162 µM): 0.18
- relative viability ([10]; first compound 0.1 µM): 0.162
- relative viability ([10]; first compound 0.3162 µM): 0.16
- relative viability ([10]; first compound 1 µM): 0.178
- relative viability ([11]; first compound 0.01 µM): 0.686
- relative viability ([11]; first compound 0.03162 µM): 0.66
- relative viability ([11]; first compound 0.1 µM): 0.736
- relative viability ([11]; first compound 0.3162 µM): 0.818
- relative viability ([11]; first compound 1 µM): 0.671
- relative viability ([12]; first compound 0.03162 µM): 0.322
- relative viability ([12]; first compound 0.1 µM): 0.386
- relative viability ([12]; first compound 0.3162 µM): 0.6
- relative viability ([12]; first compound 1 µM): 0.397
- relative viability ([13]; first compound 0.01 µM): 0.587
- relative viability ([13]; first compound 0.03162 µM): 0.516
- relative viability ([13]; first compound 0.1 µM): 0.525
- relative viability ([13]; first compound 0.3162 µM): 0.59
- relative viability ([13]; first compound 1 µM): 0.485
- relative viability ([14]; first compound 0.01 µM): 0.48
- relative viability ([14]; first compound 0.03162 µM): 0.554
- relative viability ([14]; first compound 0.1 µM): 0.412
- relative viability ([14]; first compound 0.3162 µM): 0.53
- relative viability ([14]; first compound 1 µM): 0.407
- relative viability ([15]; first compound 0.01 µM): 0.784
- relative viability ([15]; first compound 0.03162 µM): 0.827
- relative viability ([15]; first compound 0.1 µM): 0.918
- relative viability ([15]; first compound 0.3162 µM): 0.961
- relative viability ([15]; first compound 1 µM): 0.984
- relative viability ([16]; first compound 0.01 µM): 0.741
- relative viability ([16]; first compound 0.03162 µM): 0.663
- relative viability ([16]; first compound 0.1 µM): 0.775
- relative viability ([16]; first compound 0.3162 µM): 0.677
- relative viability ([16]; first compound 1 µM): 0.573
- relative viability ([17]; first compound 0.01 µM): 0.292
- relative viability ([17]; first compound 0.03162 µM): 0.301
- relative viability ([17]; first compound 0.1 µM): 0.264
- relative viability ([17]; first compound 0.3162 µM): 0.225
- relative viability ([17]; first compound 1 µM): 0.146
- relative viability ([18]; first compound 0.01 µM): 0.693
- relative viability ([18]; first compound 0.03162 µM): 0.706
- relative viability ([18]; first compound 0.1 µM): 0.624
- relative viability ([18]; first compound 0.3162 µM): 0.466
- relative viability ([18]; first compound 1 µM): 0.275
- relative viability ([19]; first compound 0.01 µM): 0.998
- relative viability ([19]; first compound 0.03162 µM): 0.92
- relative viability ([19]; first compound 0.1 µM): 0.93
- relative viability ([19]; first compound 0.3162 µM): 1.03
- relative viability ([19]; first compound 1 µM): 0.915
- relative viability ([20]; first compound 0.01 µM): 0.362
- relative viability ([20]; first compound 0.03162 µM): 0.327
- relative viability ([20]; first compound 0.1 µM): 0.367
- relative viability ([20]; first compound 0.3162 µM): 0.352
- relative viability ([20]; first compound 1 µM): 0.341
- relative viability ([21]; first compound 0.01 µM): 0.874
- relative viability ([21]; first compound 0.03162 µM): 0.889
- relative viability ([21]; first compound 0.1 µM): 0.973
- relative viability ([21]; first compound 0.3162 µM): 0.998
- relative viability ([21]; first compound 1 µM): 0.925
- relative viability ([22]; first compound 0.01 µM): 0.704
- relative viability ([22]; first compound 0.03162 µM): 0.657
- relative viability ([22]; first compound 0.1 µM): 0.769
- relative viability ([22]; first compound 0.3162 µM): 0.671
- relative viability ([22]; first compound 1 µM): 0.353
